Legend:
[1] = cited from earlier work
[2] = system: Pseudomonas aeruginosa, Staphylococcus aureus, Candida albicans, Aspergillus brasiliensis, Escherichia coli; experiment: Antimicrobial Efficacy Test (AET) according to USP-NF monograph <51>; assay type: cell-based; settings: dexamethasone eye drops, pH 5.0, USP-NF AET methodology
Description: For assessing the antimicrobial preservative agents, an Antimicrobial Efficacy Test (AET) is performed according to both USP-NF and EP standards • USP-NF: “American Pharmacopoeia” monograph <51> • EP: “European Pharmacopoeia” monograph […]
Those AETs consist in challenging the drug formulation containing an antimicrobial preservative agent at a certain concentration with specific microbial strains. The results are provided in microbial reduction expressed in logarithmic units. The acceptance criteria are specific of each standard (either US or EU) according to the table below. For being declared as passing the test, all the criteria must be achieved over the 28 days period. If at least one criterion is missed, then the whole test is declared failed.
AET acceptance criteria (microbial burden reduction in Log units)
Based on current knowledge those three microbial challenge tests (AETs), also known in the past as preservative efficacy tests (PET), are known to be more or less difficult to pass. EP/A test is known to be the most difficult one to pass. EB/B is less difficult than EB/A. USP-NF test is usually less difficult or sometimes equivalent to EP/B.

Compound | Water solubility (at 20° C.) [1] | Temperature Stability ([1]; in words) | minimum effective dose of potassium sorbate used as an antimicrobial agent [2] [% w/v] | solubility in water ([1]; in words) | Log P(octanol/water) ([1]; octanol/water)
CCCCOC(=O)c1ccc(O)cc1 [BPB, butyl paraben] | Low (0.25%) | Yes | – | – | –
C/C=C/C=C/C(=O)[O-].[K+] [KS, Potassium sorbate] | Good (>50%) | Medium | 0.235 | – | –
C/C=C/C=C/C(=O)O [SA, (2E,4E)-hexa-2,4-dienoic acid] | Low (0.15%) | Low | – | slightly soluble in water | 1.3
